Laboratory results reported in US20230027026A1, “FUSED PYRIMIDINE COMPOUNDS, COMPOSITIONS AND MEDICINAL APPLICATIONS THEREOF” (JUBILANT BIOSYS LIMITED, priority 2019, published 2023).

Key:
Format in all cases: cell-based
[1] = target: EGFR(D770_N771insSVD) expressing Ba/F3 stable cell line (Homo sapiens, UniProt P00533, DUP768-770, cells depend on it); assay: Cellular proliferation (Alamar Blue) assay, EGFR D770_N771insSVD Ba/F3; conditions: EGFR D770_N771insSVD Ba/F3, 72 hr, read-out: D770 IC50
Experimental: (§1) Example 3: Cellular Proliferation (Alamar Blue) Assays
(§2) • 1. EGFR(D770_N771insSVD) expressing Ba/F3 stable cell line • 2. EGFR (A767_dupASV) expressing Ba/F3 stable cell line • 3. A431 cells • 4. BTER2 (A775_G776insYVMA) expressing Ba/F3 stable cell line • 5. BTER2 (WT) expressing Ba/F3 stable cell line • 6. BT-474 cells
(§3) • 1. Seed cells at 5000 for A431 and 15,000 cells for Ba/F3 in 100 μL/well in complete media (for A431: DMEM with 10% FBS and for Ba/F3 cells: RPMI with 10% FBS) in 96-well tissue culture plate. Leave outer wells without cells for background measurements. Incubate at 37 degree Celsius in 5% CO2 humidified incubator for 16-18 hours. • 2. Add 0.025 ml of 5× concentration compound dilution or DMSO control. Final compound concentration range is 10-0.0005 μM prepared in 3-fold serial dilutions. Incubate for 72 hr at 37 degree Celsius in […] humidified incubator. • 3. Add 0.0125 mL Alamar Blue™ reagent to each well with multi-channel pipette and tap gently on each side of the plate to mix. Incubate for 3 hours at 37 degree Celsius in […] humidified incubator. • 4. Read plates on fluorescence reader (Tecan Spark Control, Device: Spark, Serial #: 1801006040) at 540 nm excitation, 590 nm emission wavelength. • 5. Data analysis was performed using XLfit 5.5.0.5.

[2] = target: EGFR (A767_dupASV) expressing Ba/F3 stable cell line (Homo sapiens, UniProt P00533, DUP767-769, cells depend on it); assay: Cellular proliferation (Alamar Blue) assay, EGFR A767_dupASV Ba/F3; conditions: EGFR A767_dupASV Ba/F3, 72 hr, read-out: A767 IC50
Experimental: as §1, §2, §3

A431 cells = assay: Cellular proliferation (Alamar Blue) assay, A431; conditions: Homo sapiens, A-431; A431 cells, 72 hr, Alamar Blue; read-out: A431 IC50
Experimental: as §1, §2, §3

Sequence of EGFR (A767_dupASV) expressing Ba/F3 stable cell line (P00533 with tags, fused parts or gaps DUP767-769): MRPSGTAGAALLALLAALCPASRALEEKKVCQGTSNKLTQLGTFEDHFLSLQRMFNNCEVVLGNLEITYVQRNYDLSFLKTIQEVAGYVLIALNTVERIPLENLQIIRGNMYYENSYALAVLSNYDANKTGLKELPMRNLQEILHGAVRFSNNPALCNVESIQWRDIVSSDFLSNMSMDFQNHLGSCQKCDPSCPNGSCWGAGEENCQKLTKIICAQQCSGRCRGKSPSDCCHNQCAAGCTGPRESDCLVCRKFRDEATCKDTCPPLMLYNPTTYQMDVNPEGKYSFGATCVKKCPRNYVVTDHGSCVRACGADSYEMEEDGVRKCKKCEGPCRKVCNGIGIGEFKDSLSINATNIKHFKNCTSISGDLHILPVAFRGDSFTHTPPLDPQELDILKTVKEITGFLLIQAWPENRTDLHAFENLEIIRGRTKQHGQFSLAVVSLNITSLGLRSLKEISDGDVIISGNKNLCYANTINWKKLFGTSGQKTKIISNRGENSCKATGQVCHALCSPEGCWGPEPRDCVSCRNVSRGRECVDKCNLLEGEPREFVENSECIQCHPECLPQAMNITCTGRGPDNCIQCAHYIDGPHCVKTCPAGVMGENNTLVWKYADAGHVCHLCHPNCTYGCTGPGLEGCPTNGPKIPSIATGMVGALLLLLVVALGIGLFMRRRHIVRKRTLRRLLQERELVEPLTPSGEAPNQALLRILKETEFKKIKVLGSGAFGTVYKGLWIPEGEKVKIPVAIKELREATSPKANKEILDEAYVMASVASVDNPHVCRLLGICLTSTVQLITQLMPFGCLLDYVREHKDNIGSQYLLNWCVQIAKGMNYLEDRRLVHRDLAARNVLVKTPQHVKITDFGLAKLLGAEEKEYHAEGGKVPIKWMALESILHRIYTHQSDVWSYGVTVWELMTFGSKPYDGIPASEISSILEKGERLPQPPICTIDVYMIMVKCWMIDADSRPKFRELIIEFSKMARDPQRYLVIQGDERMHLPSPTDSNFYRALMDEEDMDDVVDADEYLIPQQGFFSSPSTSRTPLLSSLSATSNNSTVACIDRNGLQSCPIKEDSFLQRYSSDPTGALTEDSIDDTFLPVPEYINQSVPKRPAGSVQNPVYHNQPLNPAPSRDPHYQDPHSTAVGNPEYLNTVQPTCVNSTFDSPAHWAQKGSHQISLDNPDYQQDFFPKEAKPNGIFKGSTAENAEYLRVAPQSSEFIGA
Sequence of EGFR(D770_N771insSVD) expressing Ba/F3 stable cell line (P00533 with tags, fused parts or gaps DUP768-770): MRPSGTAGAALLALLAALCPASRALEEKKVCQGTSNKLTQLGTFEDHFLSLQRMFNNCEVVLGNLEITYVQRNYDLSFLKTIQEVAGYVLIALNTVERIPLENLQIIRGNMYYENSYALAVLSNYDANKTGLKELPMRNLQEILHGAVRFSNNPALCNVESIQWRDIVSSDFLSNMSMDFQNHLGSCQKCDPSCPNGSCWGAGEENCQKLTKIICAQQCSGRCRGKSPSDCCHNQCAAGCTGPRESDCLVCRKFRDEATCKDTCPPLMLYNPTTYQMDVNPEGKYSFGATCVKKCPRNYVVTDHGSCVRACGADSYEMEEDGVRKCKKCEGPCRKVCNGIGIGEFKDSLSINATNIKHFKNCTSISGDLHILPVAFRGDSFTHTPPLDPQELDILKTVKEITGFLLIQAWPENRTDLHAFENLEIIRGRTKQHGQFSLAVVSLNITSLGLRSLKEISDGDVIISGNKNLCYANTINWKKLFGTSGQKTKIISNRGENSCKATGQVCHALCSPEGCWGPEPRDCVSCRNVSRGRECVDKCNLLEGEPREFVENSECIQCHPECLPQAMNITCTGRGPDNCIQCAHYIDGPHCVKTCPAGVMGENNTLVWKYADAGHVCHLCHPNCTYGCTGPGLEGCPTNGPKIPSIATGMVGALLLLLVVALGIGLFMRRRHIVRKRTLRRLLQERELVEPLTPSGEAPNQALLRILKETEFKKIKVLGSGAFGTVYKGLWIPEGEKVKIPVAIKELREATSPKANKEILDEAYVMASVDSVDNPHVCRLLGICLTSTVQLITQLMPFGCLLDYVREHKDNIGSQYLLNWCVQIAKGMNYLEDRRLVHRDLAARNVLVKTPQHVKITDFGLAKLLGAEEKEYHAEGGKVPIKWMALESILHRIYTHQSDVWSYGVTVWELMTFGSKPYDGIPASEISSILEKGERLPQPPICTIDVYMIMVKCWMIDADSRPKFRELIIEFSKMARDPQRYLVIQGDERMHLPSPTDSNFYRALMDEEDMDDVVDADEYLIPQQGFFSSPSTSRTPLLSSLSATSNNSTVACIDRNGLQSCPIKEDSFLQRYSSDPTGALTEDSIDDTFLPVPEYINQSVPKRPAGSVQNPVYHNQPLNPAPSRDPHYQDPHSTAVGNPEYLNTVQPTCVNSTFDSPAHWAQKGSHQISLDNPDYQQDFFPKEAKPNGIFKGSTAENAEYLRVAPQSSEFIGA

Structure (SMILES) | GI50 [1] [nM] | GI50 [2] [nM] | IC50 (A431 cells) [nM]
Cc1nocc1Nc1ncc2c(n1)N(c1cccc(NC(=O)/C=C/CN(C)C)c1)C(=O)N(Cc1ccccc1)C2 [Compound 60, (E)-N-(3-(3-benzyl-7-((3-methylisoxazol-4-yl)amino)-2-oxo-3,4-dihydropyrimido[4,5-d]pyrimidin-1(2H)-yl)phenyl)-4-(dimethylamino)but-2-enamide] | 2390 | 1700 | ≥ 10000
CN(C)C/C=C/C(=O)Nc1cccc(N2C(=O)N(Cc3ccc(F)cc3F)Cc3cnc(Nc4cn(C)nc4Cl)nc32)c1 [Compound 61, (E)-N-(3-(7-((3-chloro-1-methyl-1H-pyrazol-4-yl)amino)-3-(2,4-difluorobenzyl)-2-oxo-3,4-dihydropyrimido[4,5-d]pyrimidin-1(2H)-yl)phenyl)-4-(dimethylamino)but-2-enamide] | 105 | 58 | ≥ 10000
COc1cc(CN2Cc3cnc(Nc4cn(C)nc4Cl)nc3N(c3cccc(NC(=O)/C=C/CN(C)C)c3)C2=O)ccn1 [Compound 62, (E)-N-(3-(7-((3-chloro-1-methyl-1H-pyrazol-4-yl)amino)-3-((2-methoxypyridin-4-yl)methyl)-2-oxo-3,4-dihydropyrimido[4,5-d]pyrimidin-1(2H)-yl)phenyl)-4-(dimethylamino)but-2-enamide] | 5480 | 2260 | ≥ 10000
CN(C)C/C=C/C(=O)N(C)c1cccc(N2C(=O)N(Cc3ccccc3)Cc3cnc(Nc4cn(C)nc4Cl)nc32)c1 [Compound 63, (E)-N-(3-(3-benzyl-7-((3-chloro-1-methyl-1H-pyrazol-4-yl)amino)-2-oxo-3,4-dihydropyrimido[4,5-d]pyrimidin-1(2H)-yl)phenyl)-4-(dimethylamino)-N-methylbut-2-enamide] | 1460 | 532 | ≥ 10000
CN(C)C/C=C/C(=O)Nc1cccc(N2C(=O)N(Cc3ccccc3)Cc3cnc(Nc4cn(C)nc4Cl)cc32)c1 [Compound 64, (E)-N-(3-(3-benzyl-7-((3-chloro-1-methyl-1H-pyrazol-4-yl)amino)-2-oxo-3,4-dihydropyrido[4,3-d]pyrimidin-1(2H)-yl)phenyl)-4-(dimethylamino)but-2-enamide] | 1030 | 809 | ≥ 10000
COC/C=C/C(=O)Nc1cccc(N2C(=O)N(Cc3ccccc3)Cc3cnc(Nc4cn(C)nc4Cl)nc32)c1 [Compound 76, (E)-N-(3-(3-benzyl-7-((3-chloro-1-methyl-1H-pyrazol-4-yl)amino)-2-oxo-3,4-dihydropyrimido[4,5-d]pyrimidin-1(2H)-yl)phenyl)-4-methoxybut-2-enamide] | 342 | 336 | ≥ 10000
C=CC(=O)Nc1cc(N2C(=O)N(Cc3ccccc3)Cc3cnc(Nc4cn(C)nc4Cl)nc32)ccc1OC [Compound 77, N-(5-(3-benzyl-7-((3-chloro-1-methyl-1H-pyrazol-4-yl)amino)-2-oxo-3,4-dihydropyrimido[4,5-d]pyrimidin-1(2H)-yl)-2-methoxyphenyl)acrylamide] | 9130 | ≥ 10000 | ≥ 10000
C=CC(=O)Nc1cc(N2C(=O)N(Cc3ccccc3)Cc3cnc(Nc4cn(C)nc4Cl)nc32)ccc1OC(F)(F)F [Compound 78, N-(5-(3-benzyl-7-((3-chloro-1-methyl-1H-pyrazol-4-yl)amino)-2-oxo-3,4-dihydropyrimido[4,5-d]pyrimidin-1(2H)-yl)-2-(trifluoromethoxy)phenyl)acrylamide] | 8780 | 8370 | 4180
CN(C)C/C=C/C(=O)Nc1ccc(Cl)c(N2C(=O)N(Cc3ccccc3)Cc3cnc(Nc4cn(C)nc4Cl)nc32)c1 [Compound 86, (E)-N-(3-(3-benzyl-7-((3-chloro-1-methyl-1H-pyrazol-4-yl)amino)-2-oxo-3,4-dihydropyrimido[4,5-d]pyrimidin-1(2H)-yl)-4-chlorophenyl)-4-(dimethylamino)but-2-enamide] | 900 | 694 | 5440
C/C=C/C(=O)Nc1cccc(N2C(=O)N(Cc3ccccc3)Cc3cnc(Nc4cn(C)nc4F)nc32)c1 [Compound 87, (E)-N-(3-(3-benzyl-7-((3-fluoro-1-methyl-1H-pyrazol-4-yl)amino)-2-oxo-3,4-dihydropyrimido[4,5-d]pyrimidin-1(2H)-yl)phenyl)but-2-enamide] | 1980 | 2240 | > 10000
CN(C)C/C=C/C(=O)Nc1cccc(N2C(=O)N(Cc3ccccc3)Cc3cnc(Nc4cnn5cccnc45)nc32)c1 [Compound 90, (E)-N-(3-(3-benzyl-2-oxo-7-(pyrazolo[1,5-a]pyrimidin-3-ylamino)-3,4-dihydropyrimido[4,5-d]pyrimidin-1(2H)-yl)phenyl)-4-(dimethylamino)but-2-enamide] | 1850 | 1150 | ≥ 10000
COCCn1cc(Nc2ncc3c(n2)N(c2cccc(NC(=O)/C=C/CN(C)C)c2)C(=O)N(Cc2ccccc2)C3)c(Cl)n1 [Compound 92, (E)-N-(3-(3-benzyl-7-((3-chloro-1-(2-methoxyethyl)-1H-pyrazol-4-yl)amino)-2-oxo-3,4-dihydropyrimido[4,5-d]pyrimidin-1(2H)-yl)phenyl)-4-(dimethylamino)but-2-enamide] | 228 | 385 | ≥ 10000
CN(C)C/C=C/C(=O)Nc1cccc(N2C(=O)N(Cc3ccccc3)Cc3cnc(Nc4cn(CCF)nc4Cl)nc32)c1 [Compound 93, (E)-N-(3-(3-benzyl-7-((3-chloro-1-(2-fluoroethyl)-1H-pyrazol-4-yl)amino)-2-oxo-3,4-dihydropyrimido[4,5-d]pyrimidin-1(2H)-yl)phenyl)-4-(dimethylamino)but-2-enamide] | 91 | 108 | ≥ 10000
CN(C)C/C=C/C(=O)Nc1cccc(N2C(=O)N(Cc3ccccc3)Cc3cnc(Nc4cn(C)nc4C(F)F)nc32)c1 [Compound 94, (E)-N-(3-(3-benzyl-7-((3-(difluoromethyl)-1-methyl-1H-pyrazol-4-yl)amino)-2-oxo-3,4-dihydropyrimido[4,5-d]pyrimidin-1(2H)-yl)phenyl)-4-(dimethylamino)but-2-enamide] | 43 | 39 | ≥ 10000
CN(C)C/C=C/C(=O)Nc1cccc(N2C(=O)N(Cc3ccccc3)Cc3cnc(Nc4cn(C)nc4C(F)(F)F)nc32)c1 [Compound 95, (E)-N-(3-(3-benzyl-7-((1-methyl-3-(trifluoromethyl)-1H-pyrazol-4-yl)amino)-2-oxo-3,4-dihydropyrimido[4,5-d]pyrimidin-1(2H)-yl)phenyl)-4-(dimethylamino)but-2-enamide] | 97 | 106 | 6500
CN(C)C/C=C/C(=O)Nc1cccc(N2C(=O)N(Cc3ccccc3)Cc3cnc(Nc4ccncc4)nc32)c1 [Compound 96, (E)-N-(3-(3-benzyl-2-oxo-7-(pyridin-4-ylamino)-3,4-dihydropyrimido[4,5-d]pyrimidin-1(2H)-yl)phenyl)-4-(dimethylamino)but-2-enamide] | 4070 | > 9350 | ≥ 10000
CN(C)C/C=C/C(=O)Nc1cccc(N2C(=O)N(Cc3ccccc3)Cc3cnc(Nc4cnn5c4OCCC5)nc32)c1 [Compound 97, (E)-N-(3-(3-benzyl-7-((6,7-dihydro-5H-pyrazolo[5,1-b][1,3]oxazin-3-yl)amino)-2-oxo-3,4-dihydropyrimido[4,5-d]pyrimidin-1(2H)-yl)phenyl)-4-(dimethylamino)but-2-enamide] | 2540 | 2630 | ≥ 10000
CN(C)C/C=C/C(=O)Nc1cccc(N2C(=O)N(Cc3ccccc3)Cc3cnc(Nc4cccc5c4CCN5C4CCN(C)CC4)nc32)c1 [Compound 98, (E)-N-(3-(3-benzyl-7-((1-(1-methylpiperidin-4-yl)indolin-4-yl)amino)-2-oxo-3,4-dihydropyrimido[4,5-d]pyrimidin-1(2H)-yl)phenyl)-4-(dimethylamino)but-2-enamide] | 138 | 322 | ≥ 10000
CN(C)C/C=C/C(=O)Nc1cccc(N2C(=O)N(Cc3ccccc3)Cc3cnc(Nc4ccc5c(ccn5C)c4)nc32)c1 [Compound 99, (E)-N-(3-(3-benzyl-7-((1-methyl-1H-indol-5-yl)amino)-2-oxo-3,4-dihydropyrimido[4,5-d]pyrimidin-1(2H)-yl)phenyl)-4-(dimethylamino)but-2-enamide] | 145 | 115 | ≥ 10000
Cc1cn2cc(Nc3ncc4c(n3)N(c3cccc(NC(=O)/C=C/CN(C)C)c3)C(=O)N(Cc3ccccc3)C4)ccc2n1 [Compound 100, (E)-N-(3-(3-benzyl-7-((2-methylimidazo[1,2-a]pyridin-6-yl)amino)-2-oxo-3,4-dihydropyrimido[4,5-d]pyrimidin-1(2H)-yl)phenyl)-4-(dimethylamino)but-2-enamide] | 4810 | 2970 | ≥ 10000
